Measurements: paper PMC12624727, “Benzodeazaoxaflavin Sirtuin Inhibitors Inhibit Schistosoma mansoni Sirt2 and Cause Phenotypic Changes and Lethality in Schistosomula and Adult Worm Stages” (ACS Infectious Diseases, 2025)

What was measured:
schistosomula = tested on: schistosomula; parameters: method as in not given; details: 48 h of treatment, 10–20 μM; ref not given; cited from earlier work
[1] = tested on: cytochrome c release in S. mansoni (Puerto Rican strain) worms; assay: Western blot of cytosolic cytochrome c in worm extracts; format: cell-based, Schistosoma mansoni; details: 25 μM, 48 h (legend of Figure 5)
Protocol: To determine if the Sirt2 inhibitors trigger apoptosis through the cytochrome c pathway, we examined cytochrome c release from mitochondria.
5 Effects of selected Sirt2 inhibitors on cytosolic cytochrome c expression. Representative immunoblots of cytosolic protein fractions extracted from S. mansoni adult worm pairs are shown. The worms were treated with the indicated Sirt2 inhibitors (10 μM) for 48 h. DMSO (vehicle), TSA (1 μM, 24 h), a HDAC pan-inhibitor, and salermide (Sal 25 μM, 48 h), a Sirt1/Sirt2 inhibitor, were used as controls. The α-tubulin signal was used for normalization. Quantitation of cytochrome c relative to the vehicle-treated sample is shown.
Ten pairs of adult parasites were treated with selected Sirt inhibitors for either 24 or 48 h at partially lethal and sublethal concentrations. The concentrations of compounds were chosen based on the viability curve. Positive controls in the experiments included TSA, a pan-HDAC inhibitor, and salermide, a hSirt1/2 inhibitor, while DMSO (vehicle) served as negative control. Parasites were lysed in a 0.5% Triton PBS buffer by strokes, and the lysates were then centrifuged to collect the soluble fractions (cytosol). The insoluble fractions were extracted with 0.25 N HCl at +4 °C for 18 h, followed by neutralization with 1/10 volume of 2 N NaOH. Samples were analyzed using 15% SDS-PAGE and Western blotting. […]

[2] = tested on: adult S. mansoni (Puerto Rican strain) worm pairs; details: Puerto Rican strain; for lethality of adult worm pairs: 20 μM, by 72 h
in vitro = details: human
[3] = tested on: S. mansoni (Puerto Rican) worm pairs; assay: Egg laying by adult worm pairs (Puerto Rican strain); format: cell-based, Schistosoma mansoni; details: % of DMSO control
[4] = tested on: S. mansoni newly transformed schistosomula (NTS), Liberian strain; assay: NTS (Liberian strain) in vitro viability assay; format: cell-based, Schistosoma mansoni; details: for percentage of reduction of NTS viability, 72 h: SD in brackets; for IC50: 72 h, Liberian strain
[5] = tested on: adult S. mansoni (Puerto Rican strain) worm pairs; assay: microbe, parasite or virus in culture; details: Schistosoma mansoni, 24 h, read-out: mortality in adult worm pairs
hSirt2 = details: ref footnote b (reference number not given); cited from earlier work
SmSirt2 = SmSirt2 (Schistosoma mansoni, UniProt T1VXA1); assay: In vitro SmSirt2 inhibition assay, homogeneous fluorescence-based, ZMAL substrate; format: biochemical
Sequence of SmSirt2 (T1VXA1 entry or part of it): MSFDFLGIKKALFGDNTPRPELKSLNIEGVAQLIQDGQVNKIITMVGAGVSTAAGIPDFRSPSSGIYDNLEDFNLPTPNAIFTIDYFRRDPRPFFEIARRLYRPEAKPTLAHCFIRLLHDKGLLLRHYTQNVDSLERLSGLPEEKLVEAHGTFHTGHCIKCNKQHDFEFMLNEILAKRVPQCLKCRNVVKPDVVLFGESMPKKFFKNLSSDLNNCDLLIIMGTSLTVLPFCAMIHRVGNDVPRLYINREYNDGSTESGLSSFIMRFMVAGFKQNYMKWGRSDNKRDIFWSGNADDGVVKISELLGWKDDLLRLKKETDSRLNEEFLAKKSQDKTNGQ
Protocol: We first improved the synthetic method to obtain most of the BDFs analogues 1–12 (Figure ), and we tested them against recombinant SmSirt2 using a homogeneous, fluorescent-based in vitro assay with (Z)-(Ac)-Lys-7-amino-4-methylcoumarin (ZMAL) as the substrate.
The BDF4 compounds 1–12 were tested for their inhibitory activity against SmSirt2 using a fluorescence-based assay with ZMAL as the substrate. Their activity against hSirt2 has been previously reported. ,
For the screening of compounds 1–12, a homogeneous fluorescence-based assay previously described by some of us was used to determine SmSirt2 activity.

[6] = tested on: S. mansoni (Puerto Rican) worm pairs; assay: Worm pairing of adult worm pairs (Puerto Rican strain); format: cell-based, Schistosoma mansoni; details: % of DMSO control
[7] = MTT viability assay on BJ fibroblasts; details: human
[8] = tested on: histone H3 / H4 acetylation in S. mansoni (Puerto Rican strain) worm pairs; assay: Western blot of histone and lysine acetylation in worm extracts; format: cell-based, Schistosoma mansoni; details: 10 μM, 48 h; histone-enriched fraction
[9] = tested on: adult S. mansoni (Liberian strain) worm pairs; assay: Adult worm (Liberian strain) in vitro viability assay; format: cell-based, Schistosoma mansoni; details: for adult worms' percentage of viability reduction, 72 h: SD in brackets; for IC50: Schistosoma mansoni, 72 h, Liberian strain

Compound	% egg laying ([3]; 1 μM, 24 h, single experiment) [%]	% egg laying ([3]; 1 μM, 48 h, single experiment) [%]	% egg laying ([3]; 1 μM, 72 h, single experiment) [%]	% egg laying ([3]; 10 μM, 24 h, SD in brackets)	% egg laying ([3]; 10 μM, 48 h, SD in brackets)	% egg laying ([3]; 10 μM, 72 h, SD in brackets)	% egg laying ([3]; 20 μM, 24 h, SD in brackets)	% egg laying ([3]; 20 μM, 48 h, SD in brackets)	percentage of reduction of NTS viability, 72 h ([4]; 0.1 μM)	percentage of reduction of NTS viability, 72 h ([4]; 1 μM)	percentage of reduction of NTS viability, 72 h ([4]; 10 μM)	percentage of reduction of NTS viability, 72 h ([4]; 20 μM)	IC50 [4] [µM]	IC50 ([4]; Schistosoma mansoni) [µM]	mortality at 20 µM [5] [%]	IC50 (hSirt2) [µM]	% worm pairing ([6]; 1 μM, 24 h, single experiment) [%]	% worm pairing ([6]; 1 μM, 48 h, single experiment) [%]	% worm pairing ([6]; 1 μM, 72 h, single experiment) [%]	% worm pairing ([6]; 10 μM, 24 h, SD in brackets)	other results
CC(C(=O)Nc1cccc(/N=C/c2c(O)ccc3ccccc23)c1)c1ccccc1 (stereo not shown) [salermide]																					DNA fragmentation in schistosomula (TUNEL assay) (schistosomula): cause DNA fragmentation; cytosolic cytochrome c level [1]: increased levels of cytochrome c; effect on adult worm viability ([2]; after 72 h, same conditions): did not affect adult worm viability
CC(C)=CCC[C@]1(C)C=Cc2c(O)c3c(c(CC=C(C)C)c2O1)O[C@]12C(=C[C@@H]4C[C@H]1C(C)(C)O[C@@]2(C/C=C(/C)C(=O)O)C4=O)C3=O [GA, gambogic acid]																					IC50 at 72 h (in vitro): 0.34 µM
O=c1nc2oc3ccc4ccccc4c3cc-2c(=O)n1Cc1ccccc1 [Compound 9, 10-Benzyl-9H-benzo[5,6]chromeno[2,3-d]pyrimidine-9,11(10H)-dione]	98	98	126	72 (74) %	71 (36) %	67 (28) %	11 (7) %	8 (5) %	36 (2) %	100 (0) %	100 (0) %	100 (0) %	0.11	~0.1	70 to 80	15.9 ± 0.6	100	100	100	80 (20) %	% egg laying ([3]; 20 μM, 72 h, SD in brackets): 7 (6) %; IC50 (SmSirt2; read-out: IC50 SmSirt2, ZMAL substrate): 7.3 ± 0.5 µM; % worm pairing ([6]; 10 μM, 48 h, SD in brackets): 93 (11) %; % worm pairing ([6]; 10 μM, 72 h, SD in brackets): 100 (0) %; % worm pairing ([6]; 20 μM, 24 h, SD in brackets): 6 (11) %; % worm pairing ([6]; 20 μM, 48 h, SD in brackets): 20 (30) %; % worm pairing ([6]; 20 μM, 72 h, SD in brackets): 20 (30) %; IC50 at 72 h [7]: 50.6 µM; acetylation of histone H3 (pan-acetylation) [8]: increase in acetylation of histone H3; acetylation of histone H4 (pan-acetylation) [8]: but not histone H4; adult worms' percentage of viability reduction, 72 h ([9]; 20 μM): 61.2 (5.6) %; IC50 [9]: < 1 µM; lethality of adult worm pairs [2]: complete lethality
O=c1nc2oc3ccc4ccccc4c3cc-2c(=O)n1C1CCCCC1 [Compound 7, 10-Cyclohexyl-9H-benzo[5,6]chromeno[2,3-d]pyrimidine-9,11(10H)-dione]	75	66	75	32 (4) %	46 (6) %	44 (10) %	14 (12) %	9 (8) %	43.8 (2.1) %	67.7 (0) %	100 (0) %	100 (0) %	0.21	~0.2	70 to 80	58.5 ± 2.9	100	100	100	100 (0) %	inhibition at 50 µM (SmSirt2): 24.6%; % worm pairing ([6]; 10 μM, 48 h, SD in brackets): 100 (0) %; % worm pairing ([6]; 10 μM, 72 h, SD in brackets): 100 (0) %; % worm pairing ([6]; 20 μM, 24 h, SD in brackets): 0 (0) %; % worm pairing ([6]; 20 μM, 48 h, SD in brackets): 0 (0) %; % worm pairing ([6]; 20 μM, 72 h, SD in brackets): 6 (11) %; IC50 at 72 h [7]: 60 µM; acetylation of histone H3 (pan-acetylation) [8]: increase in acetylation of histone H3; acetylation of histone H4 (pan-acetylation) [8]: but not histone H4; adult worms' percentage of viability reduction, 72 h ([9]; 1 μM): 23.9 (0) %; adult worms' percentage of viability reduction, 72 h ([9]; 20 μM): 100 (0) %; IC50 [9]: 1.24 µM; lethality of adult worm pairs [2]: complete lethality
